From patent US6426204B1, “Method for detecting candida infection” (priority 1991, dated 2002)

Biological target: T1, C. tropicalis D-arabinitol dehydrogenase (Candida tropicalis, UniProt P50166)
T1 construct: endogenous in cells
Assay: Specificity of the fluorogenic D-arabinitol assay (reactivity of sugars and sugar alcohols)
Format: biochemical
Details: for Relative Reactivity: relative to D-arabinitol
Description: Human serum was diluted 1:3 (v/v) with 10 mmol/L citrate (pH 4.0), placed in a boiling water bath for 10 min, and then centrifuged at 10,000×g for 10 min to remove precipitated material. The supernatant was used as the sample. Reaction mixtures (vol.=0.4 mL) contained 0.3 mL of sample, 1 mmol/L NAD^+, 4 mmol/L Mg^2+, 0.35 IU C. tropicalis D-arabinitol dehydrogenase prepared as described in Example 1, and 0.1 mol/L Tris (pH 9.5). Incubation was for 15 min at room temperature to promote the D-arabinitol dehydrogenase-catalyzed oxidation of D-arabinitol with concomitant reduction of NAD^+ to NADH. This initial incubation stage was terminated by reducing the pH of the reaction mixture to 5.8 with 0.03 mL 1.0 mol/L citrate (pH 3.6). Resazurin (12.5 μmol/L) and diaphorase (0.15 IU) were then added, and the sample was reincubated at room temperature to promote the diaphorase-catalyzed utilization of NADH (which had accumulated in the initial incubation stage) for the reduction of resazurin to resorufin. Formation of the latter was monitored fluorometrically (Excitation=560 nm, Emission=580 nm) using a Perkin-Elmer fluorescence spectrophotometer, Model #650-40, and was complete within 30 sec.
A series of sugars and sugar alcohols normally present in human serum were assessed for reactivity in the fluorometric assay. Of the compounds examined, significant reactivity relative to that observed with an equimolar concentration of D-arabinitol was found only with xylitol (3.3%). D-glucose at concentrations as great as 5.0 mmol/L was not utilized as “a” substrate.
Assays were performed as described in Example 4 except the sample contained, instead of the boiled serum supernatant, the indicated compound in PBS/10 mmol/L citrate, pH 4.0 (1:3, v/v).

[1] = compound 5 μmol/L in PBS/10 mmol/L citrate pH 4.0
[2] = compound 500 μmol/L in PBS/10 mmol/L citrate pH 4.0

T1 sequence (P50166 whole entry): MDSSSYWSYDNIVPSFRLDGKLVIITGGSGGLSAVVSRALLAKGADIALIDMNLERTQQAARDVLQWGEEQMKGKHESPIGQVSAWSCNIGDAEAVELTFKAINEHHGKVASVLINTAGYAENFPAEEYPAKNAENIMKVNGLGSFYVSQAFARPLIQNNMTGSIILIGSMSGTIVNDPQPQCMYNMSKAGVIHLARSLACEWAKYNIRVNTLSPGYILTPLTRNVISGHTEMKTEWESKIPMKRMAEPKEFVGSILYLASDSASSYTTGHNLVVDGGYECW

SMILES | Relative Reactivity [1] | also measured
OC[C@@H](O)C(O)[C@H](O)CO [D-arabinitol] | 100% | 
O=C(CO)[C@@H](O)[C@H](O)[C@H](O)CO [D-fructose] |  | Relative Reactivity [2]: 0%
O=C[C@H](O)[C@@H](O)[C@@H](O)[C@H](O)CO [D-galactose] |  | Relative Reactivity [2]: 0.9%
O=C[C@H](O)[C@@H](O)[C@H](O)[C@H](O)CO [D-glucose] |  | Relative Reactivity (compound 5000 μmol/L in PBS/10 mmol/L citrate pH 4.0): 0%; Utilization as substrate in the fluorometric assay (concentrations as great as 5.0 mmol/L): not utilized
OC[C@@H](O)[C@@H](O)[C@H](O)[C@H](O)CO [D-mannitol] | 0% | 
O=C[C@@H](O)[C@@H](O)[C@H](O)[C@H](O)CO [D-mannose] |  | Relative Reactivity [2]: 0.3%
OC[C@@H](O)[C@@H](O)[C@H](O)[C@@H](O)CO [D-sorbitol] | 0.1% | 
OC[C@H](O)C(O)[C@@H](O)CO [L-arabinitol] | 0% | 
OC[C@@H](O)[C@@H](O)CO [erythritol] | 0% | 
OC[C@@H](O)[C@H](O)[C@H](O)[C@@H](O)CO [galactitol] | 0.6% | 
OC[C@@H](O)[C@@H](O)[C@@H](O)CO [ribitol] | 0% | 
OC[C@@H](O)[C@H](O)CO [threitol] | 0.1% | 
OC[C@@H](O)[C@H](O)[C@@H](O)CO [xylitol] | 3.3% | 
